# Results taken from ChEMBL document CHEMBL1201862, “PubChem BioAssay data set” (2004).
# Calls of active or inactive are those of the source.
# Molecular target: Paired box protein Pax-8 (Homo sapiens, UniProt Q06710)
# Experiment: PAX8 transcriptional activity inhibition in RMG-I – RMG-I cells, luciferase, cherry-pick, dose response (AID 687027);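 also: luciferase reporter driven by Pax8 target thyroperoxidase promoter measured by SteadyGlo luminescence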
# Format: functional, cell-based
# Details: not given
# Paired box protein Pax-8, sequence (Q06710 whole entry): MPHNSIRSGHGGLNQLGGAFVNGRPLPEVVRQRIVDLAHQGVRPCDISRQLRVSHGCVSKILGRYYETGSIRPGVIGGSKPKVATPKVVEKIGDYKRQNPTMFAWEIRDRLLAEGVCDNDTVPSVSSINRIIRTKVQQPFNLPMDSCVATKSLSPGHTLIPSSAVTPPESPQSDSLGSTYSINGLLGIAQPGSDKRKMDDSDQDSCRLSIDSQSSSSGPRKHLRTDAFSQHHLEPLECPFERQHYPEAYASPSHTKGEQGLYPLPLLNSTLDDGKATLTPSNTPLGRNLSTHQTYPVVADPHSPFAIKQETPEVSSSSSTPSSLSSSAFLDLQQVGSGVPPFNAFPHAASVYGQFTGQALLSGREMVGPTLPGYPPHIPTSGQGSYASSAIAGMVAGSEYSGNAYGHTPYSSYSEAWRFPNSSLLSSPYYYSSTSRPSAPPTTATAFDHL
row,Structure (SMILES),AC50
1,Nc1nc2nc[nH]c2c(=S)[nH]1 [THIOGUANINE],1.18 µM (active)

# Test system: not listed separately
# Experiment: Luminescence Cell-Based Dose Confirmation HTS to Identify Activators of 5'UTR Stem-Loop Driven Alpha-Synuclein mRNA Translation in H4 Neuroglioblastoma Cells. [Related pubchem assays: 1829 (Project Summary), 1814 (Primary HTS)]
# Format: functional
# Details: not given
row,Structure (SMILES),EC50
1,Cc1cnc(NC(=O)CCc2ccccc2)s1,> 120 µM (not active)
2,O=c1cc(Cl)[nH]c(=O)n1CCNc1ncc(C(F)(F)F)cc1Cl,12.6 µM (active)
3,COc1ccccc1NC(=O)Cn1c(CN2CCCCC2)nc2ccccc2c1=O,> 120 µM (not active)
4,O=C(CSc1ncnc2sc3c(c12)CCCC3)c1ccccc1,11.6 µM (active)
5,Cc1ccc(-c2cn(-c3ccccc3)c(SCC(=O)NC3CCS(=O)(=O)C3)n2)cc1C (stereo not drawn),1.36 µM (active)
6,O=C(c1cc2ccccn2n1)N1CCN(Cc2ccccc2)CC1,6.68 µM (active)
7,CSc1ccc(C2c3[nH]c4ccccc4c3CCN2C(=O)c2cc(C)n(C)n2)cc1 (stereo not drawn),14.2 µM (active)
8,COc1cccc(-c2nc(-c3ccc4c(c3)NC(=O)CO4)cs2)c1,17.7 µM (active)
9,O=C(N/N=C/c1cc(Br)cs1)c1ccc2c(c1)OCCO2,0.106 µM (active)
10,CC1CCN(C(C(=O)NC2CCCCC2)c2cc3c(cc2[N+](=O)[O-])OCO3)CC1 (stereo not drawn),> 120 µM (not active)
11,Cc1ccc(C(=O)NCCC(=O)N2CCCC2)cc1,0.419 µM (active)
12,c1ccc(Cn2c(-c3ccco3)nc3nc4ccccc4nc32)cc1,11.6 µM (active)
13,CCCn1c(=N)c(C(=O)NC2CCCC2)cc2c(=O)n3cccc(C)c3nc21,> 120 µM (not active)
14,Cc1ccc2nc3ccc(N4CCCC4)nn3c(=O)c2c1,0.723 µM (active)
15,O=[N+]([O-])c1cc(S(=O)(=O)/N=C(/c2ccccc2)N2CCOCC2)ccc1Cl,0.714 µM (active)
16,CC(=O)Nc1cccc(-n2nnc(SCC(=O)c3ccccc3)n2)c1,10.5 µM (active)

# Test system: not listed separately
# Experiment: Luminescence Cell-Based Dose Response HTS to Identify Activators of Luciferase Translation or Activity in H4 […] Cells. [Related pubchem assays: 1829 (Project Summary), 1814 (Primary HTS)]
# Format: functional
# Details: not given
row,Structure (SMILES),EC50
1,Cc1cnc(NC(=O)CCc2ccccc2)s1,16.6 µM (active)
2,O=C(NCCSc1ccccc1)c1ccco1,> 120 µM (not active)
3,O=c1cc(Cl)[nH]c(=O)n1CCNc1ncc(C(F)(F)F)cc1Cl,5.68 µM (active)
4,COc1ccccc1NC(=O)Cn1c(CN2CCCCC2)nc2ccccc2c1=O,> 120 µM (not active)
5,O=C(CSc1ncnc2sc3c(c12)CCCC3)c1ccccc1,9.61 µM (active)
6,Cc1ccc(-c2cn(-c3ccccc3)c(SCC(=O)NC3CCS(=O)(=O)C3)n2)cc1C (stereo not drawn),8.74 µM (active)
7,O=C(c1cc2ccccn2n1)N1CCN(Cc2ccccc2)CC1,24.1 µM (active)
8,CSc1ccc(C2c3[nH]c4ccccc4c3CCN2C(=O)c2cc(C)n(C)n2)cc1 (stereo not drawn),17.1 µM (active)
9,COc1cccc(-c2nc(-c3ccc4c(c3)NC(=O)CO4)cs2)c1,22.7 µM (active)
10,CC1CCN(C(C(=O)NC2CCCCC2)c2cc3c(cc2[N+](=O)[O-])OCO3)CC1 (stereo not drawn),25 µM (active)
11,Cc1ccc(C(=O)NCCC(=O)N2CCCC2)cc1,5.97 µM (active)
12,c1ccc(Cn2c(-c3ccco3)nc3nc4ccccc4nc32)cc1,0.127 µM (inconclusive)
13,CCCn1c(=N)c(C(=O)NC2CCCC2)cc2c(=O)n3cccc(C)c3nc21,> 120 µM (not active)
14,Cc1ccc2nc3ccc(N4CCCC4)nn3c(=O)c2c1,0.558 µM (active)
15,O=[N+]([O-])c1cc(S(=O)(=O)/N=C(/c2ccccc2)N2CCOCC2)ccc1Cl,14.6 µM (active)
16,CC(=O)Nc1cccc(-n2nnc(SCC(=O)c3ccccc3)n2)c1,19.8 µM (active)

# Test system: H4
# Experiment: Luminescence Cell-Based Dose Response HTS to Identify Activators of 5'UTR Stem-Loop Driven Prion Protein mRNA Translation in H4 Neuroglioblastoma Cells. [Related pubchem assays: 1829 (Project Summary), 1814 (Primary HTS)]
# Format: functional
# Details: Homo sapiens
row,Structure (SMILES),EC50
1,Cc1cnc(NC(=O)CCc2ccccc2)s1,15.2 µM (active)
2,O=C(NCCSc1ccccc1)c1ccco1,15 µM (active)
3,O=c1cc(Cl)[nH]c(=O)n1CCNc1ncc(C(F)(F)F)cc1Cl,7.52 µM (active)
4,COc1ccccc1NC(=O)Cn1c(CN2CCCCC2)nc2ccccc2c1=O,37.8 µM (active)
5,O=C(CSc1ncnc2sc3c(c12)CCCC3)c1ccccc1,28.8 µM (active)
6,Cc1ccc(-c2cn(-c3ccccc3)c(SCC(=O)NC3CCS(=O)(=O)C3)n2)cc1C (stereo not drawn),0.301 µM (active)
7,O=C(c1cc2ccccn2n1)N1CCN(Cc2ccccc2)CC1,9.44 µM (active)
8,CSc1ccc(C2c3[nH]c4ccccc4c3CCN2C(=O)c2cc(C)n(C)n2)cc1 (stereo not drawn),11.8 µM (active)
9,COc1cccc(-c2nc(-c3ccc4c(c3)NC(=O)CO4)cs2)c1,10.8 µM (active)
10,O=C(N/N=C/c1cc(Br)cs1)c1ccc2c(c1)OCCO2,> 120 µM (not active)
11,CC1CCN(C(C(=O)NC2CCCCC2)c2cc3c(cc2[N+](=O)[O-])OCO3)CC1 (stereo not drawn),22.1 µM (active)
12,Cc1ccc(C(=O)NCCC(=O)N2CCCC2)cc1,> 120 µM (not active)
13,c1ccc(Cn2c(-c3ccco3)nc3nc4ccccc4nc32)cc1,> 120 µM (not active)
14,CCCn1c(=N)c(C(=O)NC2CCCC2)cc2c(=O)n3cccc(C)c3nc21,> 120 µM (not active)
15,Cc1ccc2nc3ccc(N4CCCC4)nn3c(=O)c2c1,> 120 µM (not active)
16,CC(=O)Nc1cccc(-n2nnc(SCC(=O)c3ccccc3)n2)c1,2.02 µM (active)

# Test system: not listed separately
# Experiment: Luminescence Cell-Based Dose Retest to Confirm Inhibitors of Cancer Stem Cells. [Related pubchem assays (depositor defined):AID2717, AID2721]
# Format: functional, Homo sapiens
# Details: Homo sapiens
row,Structure (SMILES),AC50
1,Cc1ccc(F)c([C@H]2C3C=CCC(c4ccccc4)C3C(=O)N2Cc2ccccc2)c1 (stereo partly drawn),3.71 µM (active)

# Test system: INS1
# Experiment: INS-1E survival protection against cytokine death – cell-based, luminescence, retest, dose response (AID 449756);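 also: cell death triggered by IL-1 beta plus TNF-alpha plus IFN-gamma mixture; protective hits raise ATP signal compared with cytokine alone wells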
# Format: functional
# Details: Rattus norvegicus
row,Structure (SMILES),AC50
1,O=C(NCc1cccnc1)c1ccc([N+](=O)[O-])cc1,3.6 µM (active)
2,Cc1ccc(F)c([C@H]2C3C=CCC(c4ccccc4)C3C(=O)N2Cc2ccccc2)c1 (stereo partly drawn),11 µM (active)
3,O=C(Nc1ccc(N2CCN(C(=O)c3ccc(Cl)cc3)CC2)cc1)c1cccnc1,5.43 µM (active)
